In US9018383B2, “Acylamino-substituted cyclic carboxylic acid derivatives and their use as pharmaceuticals” (Sanofi, priority 2009, dated 2015):

Biological target: human Edg-2 receptor (Homo sapiens, UniProt Q92633)
Experiment: Determination of Edg-2 receptor inhibition by FLIPR measurements (LPA-mediated calcium liberation)
Format: cell-based
Conditions: CHO cells overexpressing human Edg-2 receptor, LPA 100 nM, fluo-4 calcium fluorescence; read-out: Inhibitory concentrations IC50 for inhibition of the Edg-2 receptor
Protocol: A) Determination of Edg-2 Receptor Inhibition by Fluorescence Imaging Plate Reader (FLIPR) Measurements
The inhibition of the Edg-2 receptor (LPA1 receptor) by the compounds of the invention was quantified by the inhibitory effect on the LPA-mediated calcium liberation in a cell-based calcium fluorescence assay by use of Chinese hamster ovarian (CHO) cells in which the human Edg-2 receptor was stably overexpressed (Flp-In system, Invitrogen). […] Changes in intracellular calcium were determined by fluorescence measurement with the calcium-sensitive dye fluo-4 (Invitrogen) in a fluorescence imaging plate reader (FLIPR, […]).
CHO cells stably overexpressing the human Edg-2 receptor were seeded (40.000 per well) in black clear-bottomed poly-D-lysine-coated 96 well plates (Becton Dickinson, Biocoat cellware) approximately 18-24 h prior to the experiments. Cells were grown in an incubator at 37° C., 5% carbon dioxide and 95% humidity in cell culture media based on F-12 glutamax media (Gibco, #31765) supplemented with 1% (vol/vol) penicilline/streptomycine (PAN, #P06-07100), 10% (vol/vol) fetal calf serum (FCS, PAA, #A15-151) and hygromycin B (Invitrogen, #10687-010) 300 mg/l (final concentrations).
Prior to the FLIPR experiment, cells were loaded with fluo-4 acetoxymethyl ester (fluo-4 AM, Invitrogen, #F14202) for 60 min in an incubator at 37° C., 5% carbon dioxide and 95% humidity in dye-loading buffer consisting of Hanks' Balanced Salt Solution (HBSS, Invitrogen, #14065049) supplemented with fluo-4 AM at 2 μM (all data given for final concentration), Pluronic® F-127 0.05% (vol/vol) (Invitrogen, #P-3000 MP), HEPES 20 mM (Gibco, #15630), probenecid 2.5 mM (Sigma, #P-8761) and bovine serum albumin 0.05% (BSA, Sigma, #A-6003), adjusted to pH 7.5 with sodium hydroxide. During cell loading, fluo-4 AM is cleaved by intracellular esterase resulting in trapping of the dye fluo-4 within the cells. Loading was terminated by washing of the cells in a cell washer (Tecan Power washer) three times with the buffer specified afore but without fluo-4 AM and BSA. This latter buffer was also used as the buffer in the subsequent cell fluorescence measurements.
The dye-loaded and washed cells were pre-incubated for approximately 5 min with various concentrations of the test compound added as a solution in DMSO (0.3% vol/vol maximum final concentration of DMSO), or with DMSO in the respective concentration only (positive control). Subsequent addition of LPA (18:1, 1-oleoyl-sn-glycerol 3-phosphate; 100 nM final concentration) leads to liberation of intracellular calcium from internal stores resulting in a large transient increase of the fluo-4 fluorescence signal which was monitored over approximately 3 min. The percent inhibition caused by the test compound was determined from the maximum fluorescence response after LPA addition to cells pre-incubated with the compound as compared to the maximum fluorescence response after LPA addition to cells pre-incubated with DMSO only. All fluorescence values were corrected for the baseline fluorescence values obtained with cells which were pre-incubated with DMSO only and were not treated with LPA (baseline control). All measurements were performed in triplicate. From the percent inhibitions the inhibitory concentration IC50 was determined.

human Edg-2 receptor, sequence (Q92633 whole entry): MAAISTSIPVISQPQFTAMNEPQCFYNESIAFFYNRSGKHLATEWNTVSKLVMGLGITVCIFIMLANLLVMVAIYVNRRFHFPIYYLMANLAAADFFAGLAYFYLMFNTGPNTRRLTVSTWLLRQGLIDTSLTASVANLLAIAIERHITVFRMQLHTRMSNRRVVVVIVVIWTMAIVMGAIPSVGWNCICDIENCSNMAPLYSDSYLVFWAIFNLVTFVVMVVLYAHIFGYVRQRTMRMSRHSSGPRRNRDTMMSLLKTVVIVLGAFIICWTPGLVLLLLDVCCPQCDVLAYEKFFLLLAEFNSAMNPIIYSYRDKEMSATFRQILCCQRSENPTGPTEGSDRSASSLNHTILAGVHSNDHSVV

Compound | IC50 [nM]
COc1ccc(C(=O)NC2(C(=O)O)CCCCCC2)c(F)c1OCCc1cccc(C)c1 [Example 69, 1-[2-Fluoro-4-methoxy-3-(2-m-tolyl-ethoxy)-benzoylamino]-cycloheptanecarboxylic acid] | 100 to 1000
COc1ccc(C(=O)NC2(C(=O)O)CCCCCC2)cc1OCC(O)c1cccc(C)c1 (stereo not drawn) [Example 73, 1-[3-(2-Hydroxy-2-m-tolyl-ethoxy)-4-methoxy-benzoylamino]-cycloheptanecarboxylic acid] | 1000 to 30000
COc1ncc(C(=O)NC2(C(=O)O)CCCCCCC2)cc1OCCc1cccc(C)c1 [Example 78, 1-{[6-Methoxy-5-(2-m-tolyl-ethoxy)-pyridine-3-carbonyl]-amino}-cyclooctanecarboxylic acid] | 100 to 1000
COc1ncc(C(=O)N[C@]2(C(=O)O)CC[C@@H](C)CC2)cc1OCCc1cc(C)ccc1C [Example 84, trans-1-({5-[2-(2,5-Dimethyl-phenyl)-ethoxy]-6-methoxy-pyridine-3-carbonyl}-amino)-4-methyl-cyclohexanecarboxylic acid] | 1000 to 30000
COc1ncc(C(=O)N[C@]2(C(=O)O)CC[C@H](C)CC2)cc1OCCc1cc(C)ccc1C [Example 86, cis-1-({5-[2-(2,5-Dimethyl-phenyl)-ethoxy]-6-methoxy-pyridine-3-carbonyl}-amino)-4-methyl-cyclohexanecarboxylic acid] | 1000 to 30000
COc1ncc(C(=O)NC2(C(=O)O)CCCCCC2)cc1OCCc1cc(C)ccc1C [Example 87, 1-({5-[2-(2,5-Dimethyl-phenyl)-ethoxy]-6-methoxy-pyridine-3-carbonyl}-amino)-cycloheptanecarboxylic acid] | 1000 to 30000
COc1ncc(C(=O)N[C@]2(C(=O)O)CC[C@@H](C(C)(C)C)CC2)cc1OCCc1cccc(C)c1 [Example 89, trans-4-tert-Butyl-1-{[6-methoxy-5-(2-m-tolyl-ethoxy)-pyridine-3-carbonyl]-amino}-cyclohexanecarboxylic acid] | 1000 to 30000
COc1ncc(C(=O)N[C@]2(C(=O)O)CC[C@H](C)CC2)cc1OCCc1cccc(CCO)c1 [Example 91, cis-1-[(5-{2-[3-(2-Hydroxy-ethyl)-phenyl]-ethoxy}-6-methoxy-pyridine-3-carbonyl)-amino]-4-methyl-cyclohexanecarboxylic acid] | < 100
COc1ncc(C(=O)NC2(C(=O)O)CCCCCC2)cc1-c1cccc(C#N)c1 [Example 92, 1-{[5-(3-Cyano-phenyl)-6-methoxy-pyridine-3-carbonyl]-amino}-cycloheptanecarboxylic acid] | 1000 to 30000
COc1ncc(C(=O)NC2(C(=O)O)CCCCCC2)cc1-c1cccc(NS(=O)(=O)N(C)C)c1 [Example 93] | 1000 to 30000
COc1ncc(C(=O)NC2(C(=O)O)CCCCCC2)cc1-c1cccc(Cl)c1 [Example 94, 1-{[5-(3-chloro-phenyl)-6-methoxy-pyridyl-3-carbonyl]-amino}-cycloheptanecarboxylic acid] | 100 to 1000
COc1ncc(C(=O)NC2(C(=O)O)CCCCCC2)cc1-c1cccc(C(C)C)c1 [Example 95] | 100 to 1000
COc1ncc(C(=O)NC2(C(=O)O)CCCCCC2)cc1-c1cccc(OC(F)(F)F)c1 [Example 96] | < 100
COc1ncc(C(=O)NC2(C(=O)O)CCCCCC2)cc1-c1cccc(Cl)c1Cl [Example 97] | < 100
COc1ncc(C(=O)NC2(C(=O)O)CCCCCC2)cc1-c1cc(F)c(F)c(F)c1 [Example 98] | < 100
COc1ncc(C(=O)NC2(C(=O)O)CCCCCC2)cc1-c1cc(Cl)cc(C(F)(F)F)c1 [Example 99] | < 100
COc1ncc(C(=O)NC2(C(=O)O)CCCCCC2)cc1-c1cccc(C(F)(F)F)c1 [Example 100] | < 100

Now from value to compound:

IC50 [nM] | Compound
< 100 | COc1ccc(C(=O)NC2(C(=O)O)CCCC2OC)cc1OCCc1cccc(C)c1 (stereo not drawn) [Example 68, 2-Methoxy-1-[4-methoxy-3-(2-m-tolyl-ethoxy)-benzoylamino]-cyclopentanecarboxylic acid]
< 100 | COc1c(F)cc(C(=O)NC2(C(=O)O)CCCCCC2)cc1OCCc1cccc(C)c1 [Example 70, 1-[3-Fluoro-4-methoxy-5-(2-m-tolyl-ethoxy)-benzoylamino]-cycloheptanecarboxylic acid]
< 100 | COc1ccc(C(=O)NC2(C(=O)O)CCCCCC2)cc1OCC(F)(F)c1ccccc1 [Example 71, 1-[3-(2,2-Difluoro-2-phenyl-ethoxy)-4-methoxy-benzoylamino]-cycloheptanecarboxylic acid]
< 100 | COc1ccc(C(=O)NC2(C(=O)O)CCCCCC2)cc1CCCc1cccc(C)c1 [Example 72, 1-[4-Methoxy-3-(3-m-tolyl-propyl)-benzoylamino]-cycloheptanecarboxylic acid]
< 100 | COc1ccc(C(=O)NC2(C(=O)O)CCC=CCC2)cc1OCCc1cccc(C)c1 [Example 74, 1-[4-Methoxy-3-(2-m-tolyl-ethoxy)-benzoylamino]-cyclohept-4-enecarboxylic acid]
< 100 | COc1ccc(C(=O)NC2(C(=O)O)CCC3CC3CC2)cc1OCCc1cccc(C)c1 (stereo not drawn) [Example 75]
< 100 | COc1ccc(C(=O)NC2(C(=O)O)CC(C)C2)cc1OCCc1cccc(C)c1 (stereo not drawn) [Example 76, 1-[4-Methoxy-3-(2-m-tolyl-ethoxy)-benzoylamino]-3-methyl-cyclobutanecarboxylic acid]
< 100 | COc1ncc(C(=O)NC2(C(=O)O)CCCCCC2)cc1OCCc1cccc(C)c1 [Example 77, 1-{[6-Methoxy-5-(2-m-tolyl-ethoxy)-pyridine-3-carbonyl]-amino}-cycloheptanecarboxylic acid]
< 100 | COc1ncc(C(=O)N[C@]2(C(=O)O)CC[C@H](C)CC2)cc1OCCc1cccc(C)c1 [Example 79, cis-1-{[6-Methoxy-5-(2-m-tolyl-ethoxy)-pyridine-3-carbonyl]-amino}-4-methyl-cyclohexanecarboxylic acid]
< 100 | COc1ncc(C(=O)N[C@]2(C(=O)O)CC[C@@H](C)CC2)cc1OCCc1cccc(C)c1 [Example 80, trans-1-{[6-Methoxy-5-(2-m-tolyl-ethoxy)-pyridine-3-carbonyl]-amino}-4-methyl-cyclohexanecarboxylic acid]
< 100 | COc1ncc(C(=O)N[C@]2(C(=O)O)CC[C@@H](C)CC2)cc1OCCc1cc(Cl)ccc1F [Example 81, trans-1-({5-[2-(5-Chloro-2-fluoro-phenyl)-ethoxy]-6-methoxy-pyridine-3-carbonyl}-amino)-4-methyl-cyclohexanecarboxylic acid]
< 100 | COc1ncc(C(=O)N[C@]2(C(=O)O)CC[C@@H](C)CC2)cc1OCCc1cc(OC(F)(F)F)ccc1F [Example 82, trans-1-({5-[2-(2-Fluoro-5-trifluoromethoxy-phenyl)-ethoxy]-6-methoxy-pyridine-3-carbonyl}-amino)-4-methyl-cyclohexanecarboxylic acid]
< 100 | COc1ncc(C(=O)N[C@]2(C(=O)O)CC[C@@H](C)CC2)cc1OCCc1ccccc1 [Example 83, trans-1-{[6-Methoxy-5-(2-phenyl-ethoxy)-pyridine-3-carbonyl]-amino}-4-methyl-cyclohexanecarboxylic acid]
< 100 | COc1ncc(C(=O)N[C@]2(C(=O)O)CC[C@@H](C)CC2)cc1OCCc1cccc(Cl)c1 [Example 85, trans-1-({5-[2-(3-chloro-phenyl)-ethoxy]-6-methoxy-pyridine-3-carbonyl}-amino)-4-methyl-cyclohexanecarboxylic acid]
< 100 | COc1ncc(C(=O)NC2(C(=O)O)CCCCCC2)cc1OCCc1ccccc1 [Example 88, 1-{[5-(2-Phenyl-ethoxy)-6-methoxy-pyridine-3-carbonyl]-amino}-cycloheptanecarboxylic acid]
< 100 | COc1ncc(C(=O)N[C@]2(C(=O)O)CC[C@@H](C)CC2)cc1OCCc1cccc(CCO)c1 [Example 90, trans-1-[(5-{2-[3-(2-Hydroxy-ethyl)-phenyl]-ethoxy}-6-methoxy-pyridine-3-carbonyl)-amino]-4-methyl-cyclohexanecarboxylic acid]
